# In patent US10081632B2, “Substituted tetrahydropyrido[3′,2′:4,5]pyrrolo[1,2-α]pyrazine-2-carboxamides as RSK inhibitors” (Phoenix Molecular Designs, priority 2016, dated 2018):
# Columns and labels:
# [1] = test system: MDA-MB-435 cells; assay: Monolayer growth inhibition, Alamar blue assay; type: cell-based; details: Homo sapiens, 5 days, single dose on day 1
# Description: (§1) In all instances a single dose was given on day 1 of the experiment.
# [2] = test system: PC3 cells; assay: Monolayer growth inhibition, Alamar blue assay; type: cell-based; details: Homo sapiens, PC-3; PC3 (Prostate), 5 days, single dose on day 1
# Description: as §1
# [3] = test system: JIMT-1 cells; assay: Monolayer growth inhibition, Alamar blue assay; type: cell-based; details: Homo sapiens, 5 days, single dose on day 1
# Description: as §1
# [4] = test system: SUM149 cells; assay: Monolayer growth inhibition, Alamar blue assay; type: cell-based; details: Homo sapiens, 5 days, single dose on day 1
# Description: as §1
# [5] = test system: MDA-MB-468 cells; assay: Monolayer growth inhibition, Alamar blue assay; type: cell-based; details: Homo sapiens, 5 days, single dose on day 1
# Description: as §1
# [6] = test system: HCC1143 cells; assay: Monolayer growth inhibition, Alamar blue assay; type: cell-based; details: Homo sapiens, 5 days, single dose on day 1
# Description: as §1
# [7] = test system: HCC1937 cells; assay: Monolayer growth inhibition, Alamar blue assay; type: cell-based; details: Homo sapiens, 5 days, single dose on day 1
# Description: as §1
# [8] = test system: 4T1 cells; assay: Monolayer growth inhibition, Alamar blue assay; type: cell-based; details: Mus musculus, 5 days, single dose on day 1
# Description: as §1
# [9] = test system: 4T1 cells; assay: Soft agar growth inhibition assay; type: cell-based; details: Mus musculus, 4T1, 240 h, 4T1, 10 days; read-out: IC50 Values, 10 Days, Soft Agar
# Procedure: Two agar (Alfa Aesar) solutions (0.8% w/v and 0.4% w/v) were prepared in ultrapure water. The 0.8% agar solution was mixed in equal volumes with 2× media previously prepared from powder (Life Technologies) following the manufacturer's instructions and filter sterilized. The 0.8% agar and media solution was added to 24 well plates (Mandel Scientific) at 500 μl per well. The plates were placed in a humidified incubator at 37° C. with 5% CO2. Next, the 0.4% agar solution was mixed in equal volumes with 2× media. Breast cancer cell lines were added to this solution to achieve a final concentration of 2×10^4 cells per well and […] was added to each well on top of the bottom agar and media layer. […] The plates were returned to the incubator for 10-32 days, with a re-dosing of compounds or DMSO every 7 days. After 10-32 days, colonies were counted in 3 different fields of view for each well.
# Representative compounds described herein were tested in the soft agar growth inhibition assay against the 4T1 breast cancer cell line.
# [10] = test system: SUM149-PTXR cells; assay: Monolayer growth inhibition, Alamar blue assay; type: cell-based, Human; details: Homo sapiens; SUM149-PTXR (TNBC, BRCA Mutant), 5 days, single dose on day 1
# Description: as §1
# [11] = test system: T47D cells; assay: Monolayer growth inhibition, Alamar blue assay; type: cell-based, Human; details: Homo sapiens, T47D (ER/PR), 5 days, single dose on day 1
# Description: as §1
# [12] = test system: All cell lines; assay: Monolayer growth inhibition, Alamar blue assay, range over all cell lines; type: cell-based; details: 120 h; range of IC50 over all cell lines of the table; read-out: IC50 Values - Alamar Blue (5 Days), Range, All
# Description: as §1
# [13] = test system: JIMT-1 cells; assay: Monolayer growth inhibition, crystal violet assay; type: cell-based; details: Homo sapiens, 5 days, single dose on day 1
# Description: (§2) In all instances a single dose was given on day 1 of the experiment. […] Complete (100%) growth suppression was achievable with several of the compounds in multiple different cell lines.
# [14] = test system: MDA-MB-468 cells; assay: Monolayer growth inhibition, crystal violet assay; type: cell-based; details: Homo sapiens, 5 days, single dose on day 1
# Description: as §2
# [15] = test system: T47D cells; assay: Monolayer growth inhibition, crystal violet assay; type: cell-based; details: Homo sapiens, T47D (ER/PR), 5 days, single dose on day 1
# Description: as §2
# [16] = test system: HCC1937 cells; assay: Monolayer growth inhibition, crystal violet assay; type: cell-based; details: Homo sapiens, 5 days, single dose on day 1
# Description: as §2
# [17] = test system: All cell lines; assay: Monolayer growth inhibition, crystal violet assay, range over all cell lines; type: cell-based; details: 120 h; range of IC50 over all cell lines of the table; read-out: IC50 Values - Crystal Violet (5 Days), Range, All
# Description: as §2
# [18] = test system: CD34+ cells; assay: Colony forming unit hematopoietic stem cell assay; type: cell-based, human; details: Homo sapiens, Hematopoietic stem cell, 336 h, CD34+ HSC, 14 days; read-out: IC50 Values - 14 days, CFU Assay
# Procedure: The hematopoietic colony forming cell assay was conducted based on a protocol outlined by StemCell Technologies. […] Following the addition of CD34^+ cells isolated from human cord blood or peripheral blood (StemCell Technologies) at a final concentration of 5×10^2 cells per dish, the tubes were vortexed and allowed to stand for 5 minutes at room temperature. Next, the MethoCult mixtures were dispensed into 35 mm dishes (Corning Incorporated) through blunt end needles (StemCell Technologies) and 5 ml syringes (BD Biosciences) at a volume of 1.1 ml per dish. The medium was evenly distributed across the surface of each dish by gentle tilting and rotation. The dishes were then placed in a 100 mm culture dish (Grenier Bio-One) containing additional 35 mm dishes with sterile water to maintain humidity. […] The number of myeloid and erythroid derived colonies in both the treated and control dishes were counted and compared.
# [19] = test system: MDA-MB-435 cells; assay: Monolayer growth inhibition, crystal violet assay; type: cell-based; details: Homo sapiens; MDA-MB-435 (Melanoma), 5 days, single dose on day 1
# Description: as §1
# [20] = test system: PC3 cells; assay: Monolayer growth inhibition, crystal violet assay; type: cell-based; details: Homo sapiens, PC-3; PC3 (Prostate), 5 days, single dose on day 1
# Description: as §1
# [21] = test system: SUM149-PTXR cells; assay: Monolayer growth inhibition, crystal violet assay; type: cell-based; details: Homo sapiens; SUM149-PTXR (TNBC, BRCA Mutant), 5 days, single dose on day 1
# Description: as §1
# [22] = test system: SUM149 cells; assay: Monolayer growth inhibition, crystal violet assay; type: cell-based; details: Homo sapiens, 5 days, single dose on day 1
# Description: as §1
# [23] = test system: HCC1143 cells; assay: Monolayer growth inhibition, crystal violet assay; type: cell-based; details: Homo sapiens, 5 days, single dose on day 1
# Description: as §1
# [24] = test system: 4T1 cells; assay: Monolayer growth inhibition, crystal violet assay; type: cell-based; details: Mus musculus, 5 days, single dose on day 1
# Description: as §1
# [25] = test system: MDA-MB-231 cells; assay: Monolayer growth inhibition, Alamar blue assay; type: cell-based; details: Homo sapiens; MDA-MB-231 (TNBC), 5 days, single dose on day 1
# Description: as §1
# [26] = test system: MDA-MB-231 cells; assay: Monolayer growth inhibition, crystal violet assay; type: cell-based; details: Homo sapiens; MDA-MB-231 (TNBC), 5 days, single dose on day 1
# Description: as §1
# [27] = SUM149, SUM149 (TNBC, BRCA Mutant)
# [28] = HCC1937, HCC1937 (TNBC, BRCA Mutant)
smiles,measurement,setting,value
"C[C@@H]1CNC(=O)c2cc3ccc(NC(=O)c4cnn(Cc5ccccc5)c4)nc3n21 [Compound 15, (R)-1-benzyl-N-(9-methyl-6-oxo-6,7,8,9-tetrahydropyrido[3′,2′:4,5]pyrrolo[1,2-a]pyrazin-2-yl)-1H-pyrazole-4-carboxamide]",IC50,"[1]; MDA-MB-435, MDA-MB-435 (Melanoma)",13.7 ± 3.4 µM
same,IC50,[2],11.5 ± 3.4 µM
same,IC50,"[3]; JIMT-1, JIMT-1 (HER2)",8.3 ± 1.8 µM
same,IC50,[4]; [27],11.7 ± 2.8 µM
same,IC50,"[5]; MDA-MB-468, MDA-MB-468 (TNBC)",13.3 ± 4.1 µM
same,IC50,"[6]; HCC1143, HCC1143 (TNBC)",3.6 ± 2.7 µM
same,IC50,[7]; [28],9.7 ± 3.9 µM
same,IC50,"[8]; 4T1, 4T1 (TNBC)",8.8 ± 2.1 µM
same,IC50,[9],3.8 µM
same,IC50,[10],9.2 ± 3 µM
same,IC50,[11]; T47D,7.8 ± 3.7 µM
same,IC50,[12],3.6 to 21.3 µM
same,IC50,"[13]; JIMT-1, JIMT-1 (HER2)",11.2 ± 0.2 µM
same,IC50,"[14]; MDA-MB-468, MDA-MB-468 (TNBC)",11.3 ± 0.7 µM
same,IC50,[15]; T47D,8.5 ± 0.7 µM
same,IC50,[16]; [28],12 ± 0.2 µM
same,IC50,[17],5.9 to 21 µM
same,IC50,[18],23.8 µM
same,IC50,[19],8.2 ± 2.5 µM
same,IC50,[20],5.9 ± 1.4 µM
same,IC50,[21],8.8 ± 2.2 µM
same,IC50,[22]; [27],9.9 ± 3.1 µM
same,IC50,"[23]; HCC1143, HCC1143 (TNBC)",12.6 ± 3.4 µM
same,IC50,"[24]; 4T1, 4T1 (TNBC)",6.9 ± 3 µM
"C[C@@H]1CNC(=O)c2cc3ccc(C(=O)Nc4cnn(Cc5ccccc5N)c4)nc3n21 [Compound 17, (R)—N-(1-(2-aminobenzyl)-1H-pyrazol-4-yl)-9-methyl-6-oxo-6,7,8,9-tetrahydropyrido[3′,2′:4,5]pyrrolo[1,2-a]pyrazine-2-carboxamide]",IC50,[1]; MDA-MB-435 (Melanoma),1.2 ± 1 µM
same,IC50,[2],6 ± 3.2 µM
same,IC50,[3]; JIMT-1 (HER2),12.6 ± 5.9 µM
same,IC50,"[4]; SUM149 (TNBC, BRCA Mutant)",8.3 ± 4.9 µM
same,IC50,[5]; MDA-MB-468 (TNBC),2.1 ± 1.1 µM
same,IC50,[6]; HCC1143 (TNBC),5 ± 1.7 µM
same,IC50,[25],10.3 ± 0.7 µM
same,IC50,"[7]; HCC1937 (TNBC, BRCA Mutant)",6.8 ± 1.3 µM
same,IC50,[8]; 4T1 (TNBC),3.8 ± 1.7 µM
same,IC50,[10],4.2 ± 1.5 µM
same,IC50,[11],5.7 ± 2.1 µM
same,IC50,[12],1.2 to 12.6 µM
same,IC50,[13]; JIMT-1 (HER2),7.4 ± 2.5 µM
same,IC50,[14]; MDA-MB-468 (TNBC),1.6 ± 0.7 µM
same,IC50,[15],6.7 ± 1.6 µM
same,IC50,"[16]; HCC1937 (TNBC, BRCA Mutant)",7.3 ± 3.2 µM
same,IC50,[17],1 to 8.9 µM
same,IC50,[19],1 ± 0.3 µM
same,IC50,[20],2.7 ± 1.2 µM
same,IC50,[21],5.2 ± 0.6 µM
same,IC50,"[22]; SUM149 (TNBC, BRCA Mutant)",5.3 ± 2.2 µM
same,IC50,[23]; HCC1143 (TNBC),8.9 ± 3.2 µM
same,IC50,[26],5.1 ± 2 µM
same,IC50,[24]; 4T1 (TNBC),2 ± 0.6 µM
